Experimental data published in patent US12421211B2, “Heterocyclic compounds” (Hoffmann-La Roche Inc., priority 2021, dated 2025).
Values after ≈ are worked out from the molar mass of the structure shown. Where a name gives a salt, the structure may show the parent alone.

The compounds below were run on Acinetobacter baumannii ATCC17961 (assay: Antimicrobial susceptibility testing: 90% growth inhibitory concentration (IC90) determination). Settings: Acinetobacter baumannii, ATCC17961, 16 h, 90% growth inhibitory concentration, Acinetobacter baumannii ATCC17961, Iso-Sensitest broth, OD 600 nm over 16 h; read-out: ATCC 17961 IC90.
Format: cell-based
Procedure, shortened: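 Growth inhibition derived in log phase from OD600 kinetics (every 20 minutes, 16h, 35±2° C) of ATCC17961 in Iso-Sensitest medium, inoculum ~5×10^5 CFU/ml. Compounds tested as twofold series, 10 points (e.g. 50 to 0.097 μM final); IC90 and IC50 reported.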
Work on `COCCn1ncc(-c2ccc(-c3cnc(C(=O)Nc4ccc(C(=O)N5CCN(C(=O)C6CCNCC6)CC5)c(Cl)c4)n3C)c(F)c2C)c1C` [Example E3, N-[3-chloro-4-[4-(piperidine-4-carbonyl)piperazine-1-carbonyl]phenyl]-5-[2-fluoro-4-[1-(2-methoxyethyl)-5-methyl-pyrazol-4-yl]-3-methyl-phenyl]-1-methyl-imidazole-2-carboxamide; formic acid] yielded an IC90 of 490 nM. With `Cc1n[nH]cc1-c1ccc(-c2cnc(C(=O)Nc3ccc(C(=O)N4CCN(C(=O)C[N+](C)(C)C)CC4)c(Cl)c3)n2C)cc1` [Example F51, [2-[4-[2-chloro-4-[[1-methyl-5-[4-(3-methyl-1H-pyrazol-4-yl)phenyl]imidazole-2-carbonyl]amino]benzoyl]piperazin-1-yl]-2-oxo-ethyl]-trimethyl-ammonium; formate] the IC90 was 210 nM. With `COCCn1ncc(-c2ccc(-c3cnc(C(=O)Nc4ccc(C(=O)N5CCN(C(=O)C[C@@H]6CC[N+](C)(C)C6)CC5)c(Cl)c4)n3C)c(F)c2F)c1C` [Example A5, N-[3-chloro-4-[4-[2-[(3S)-1,1-dimethylpyrrolidin-1-ium-3-yl]acetyl]piperazine-1-carbonyl]phenyl]-5-[2,3-difluoro-4-[1-(2-methoxyethyl)-5-methyl-pyrazol-4-yl]phenyl]-1-methyl-imidazole-2-carboxamide; formate] the IC90 was 55 nM. With `COCCn1ncc(-c2ccc(-c3cnc(C(=O)Nc4ccc(C(=O)N5CCN(C(=O)C67CC(N)(C6)C7)CC5)c(Cl)c4)n3C)c(F)c2F)c1C` [Example D30, N-[4-[4-(3-aminobicyclo[1.1.1]pentane-1-carbonyl)piperazine-1-carbonyl]-3-chloro-phenyl]-5-[2,3-difluoro-4-[1-(2-methoxyethyl)-5-methyl-pyrazol-4-yl]phenyl]-1-methyl-imidazole-2-carboxamide; 2,2,2-trifluoroacetic acid] the IC90 was 240 nM. `Cc1nn(CCNC(=O)Nc2ccccn2)cc1-c1ccc(-c2cnc(C(=O)Nc3ccc(C(=O)N4CCN(C(=O)C5CC[N+](C)(C)CC5)CC4)c(Cl)c3)n2C)c(F)c1F` [Example H7, N-[3-chloro-4-[4-(1,1-dimethylpiperidin-1-ium-4-carbonyl)piperazine-1-carbonyl]phenyl]-5-[2,3-difluoro-4-[3-methyl-1-[2-(2-pyridylcarbamoylamino)ethyl]pyrazol-4-yl]phenyl]-1-methyl-imidazole-2-carboxamide; formate] gave an IC90 of 190 nM. In the case of `COCCn1ncc(-c2ccc(-c3cnc(C(=O)Nc4ccc(C(=O)N5CCN(C(=O)CCCC(=O)N6CC[N+](CC(=O)O)(CC7CNC7)CC6)CC5)c(Cl)c4)n3C)c(F)c2F)c1C` [Example P6, 2-[1-(azetidin-3-ylmethyl)-4-[5-[4-[2-chloro-4-[[5-[2,3-difluoro-4-[1-(2-methoxyethyl)-5-methyl-pyrazol-4-yl]phenyl]-1-methyl-imidazole-2-carbonyl]amino]benzoyl]piperazino]-5-keto-pentanoyl]piperazin-1-ium-1-yl]acetic acid; 1:1 formate], the IC90 is reported as 310 nM.

Same assay, conditions: Acinetobacter baumannii, ATCC17961, 16 h, read-out: ATCC 17961 IC90
`COCCn1cc(-c2ccc(-c3cnc(C(=O)Nc4ccc(C(=O)N5CCN(C(=O)C[N+]6(C)C[C@@H](O)[C@H](O)C6)CC5)c(Cl)c4)n3C)c(F)c2F)c(C)n1` [Example C10, N-[3-chloro-4-[4-[2-[(3R,4R)-3,4-dihydroxy-1-methyl-pyrrolidin-1-ium-1-yl]acetyl]piperazine-1-carbonyl]phenyl]-5-[2,3-difluoro-4-[1-(2-methoxyethyl)-3-methyl-pyrazol-4-yl]phenyl]-1-methyl-imidazole-2-carboxamide; formate] gave an IC90 of 280 nM.

These compounds were tested on Acinetobacter baumannii ATCC17978 (assay: Minimal Inhibitory Concentration (MIC) assay). Settings: Acinetobacter baumannii ATCC17978, CAMHB medium, 20 hours at 35±2° C., visual reading; read-out: MIC AB. ATCC17978.
Format: cell-based
Procedure: Minimal Inhibitory Concentration Protocol (MIC) Assay:
Table 2 provides the in vitro potency of the compounds of present invention obtained against the strain Acinetobacter baumannii ATCC17978, which was assessed by an MIC (Minimal Inhibitory Concentration) assay as follows.
Test compounds were prepared from 10 mM DMSO stock solutions. The top dose was diluted from 10 mM to 2.5 mM by DMSO, followed by serial 2-fold 11 points dilutions in DMSO in a master plate (Greiner, Cat No: 651201). 2 μL compounds were transferred from the master plate into a new 96-well assay plate (Costar, 3599).
The growth medium […] Mueller Hinton Broth (CAMHIB) was prepared by adding 22 g powder (BD, 212322) in 1 L purified water, autoclaved, and supplemented with sterilized CaCl2 (20 mg per liter) and MgCl2 (10 mg per liter).
Vials of each of the test microorganisms were maintained frozen in the vapor phase of a liquid nitrogen freezer. Took out the bacterial strain ATCC 17978 from liquid nitrogen freezer, thawed it at room temperature, and diluted the bacterial in the CAMHB medium to achieve a final inoculum of 2×10^5 CFU/mL. 98 μL of the adjusted bacteria suspension was dispensed to the assay plate and pipetted 5 times.
Then the assay plates were incubated for 20 hours at 35±2° C. in ambient air with humidity. Following incubation, MIC […] value, the lowest concentration of drug that inhibits visible growth of the microorganism, was recorded by visual judgment of bacterial growth through magnification mirror of MIC reader, and the assay plates were photographed with Qcount system as image raw data. Meanwhile, the D600 of assay plates was recorded with SpectraMax Plus384 as GD raw data.
`Cn1c(-c2ccc(-c3cn(CC(N)=O)nc3C(F)(F)F)c(F)c2F)cnc1C(=O)Nc1ccc(C(=O)N2CCN(C(=O)C3CC[N+](C)(C)CC3)CC2)c(Cl)c1` [Example F35, 5-[4-[1-(2-amino-2-oxo-ethyl)-3-(trifluoromethyl)pyrazol-4-yl]-2,3-difluoro-phenyl]-N-[3-chloro-4-[4-(1,1-dimethylpiperidin-1-ium-4-carbonyl)piperazine-1-carbonyl]phenyl]-1-methyl-imidazole-2-carboxamide; formate] was tested, and the MIC was 1.24 µM. `Cc1nn(CC(=O)NC2CCOC2)cc1-c1ccc(-c2cnc(C(=O)Nc3ccc(C(=O)N4CCN(C(=O)C5CC[N+](C)(C)CC5)CC4)c(Cl)c3)n2C)c(F)c1F` (stereo not shown) [Example G20, N-[3-chloro-4-[4-(1,1-dimethylpiperidin-1-ium-4-carbonyl)piperazine-1-carbonyl]phenyl]-5-[2,3-difluoro-4-[3-methyl-1-[2-oxo-2-(tetrahydrofuran-3-ylamino)ethyl]pyrazol-4-yl]phenyl]-1-methyl-imidazole-2-carboxamide; formate] was tested, and the MIC was 2.52 µM. Compound `Cc1n[nH]cc1-c1ccc(-c2cnc(C(=O)Nc3ccc(C(=O)N4CCN(C(=O)[C@@H]5C[C@@H](O)C[N+]5(C)C)CC4)c(Cl)c3)n2C)c(F)c1F` [Example D19, N-[3-chloro-4-[4-[(2S,4R)-4-hydroxy-1,1-dimethyl-pyrrolidin-1-ium-2-carbonyl]piperazine-1-carbonyl]phenyl]-5-[2,3-difluoro-4-(3-methyl-1H-pyrazol-4-yl)phenyl]-1-methyl-imidazole-2-carboxamide; formate] has an MIC of 1.07 µM. Compound `Cc1c(-c2ccc(-c3cnc(C(=O)Nc4ccc(C(=O)N5CCN(C(=O)C6CC[N+](C)(C)CC6)CC5)c(Cl)c4)n3C)c(F)c2F)cnn1CC(=O)Nc1ccccn1` [Example G19, N-[3-chloro-4-[4-(1,1-dimethylpiperidin-1-ium-4-carbonyl)piperazine-1-carbonyl]phenyl]-5-[2,3-difluoro-4-[5-methyl-1-[2-oxo-2-(2-pyridylamino)ethyl]pyrazol-4-yl]phenyl]-1-methyl-imidazole-2-carboxamide; formate] has an MIC of 0.32 µM. `Cn1c(-c2ccc(-c3cn[nH]c3CCCCO)c(F)c2F)cnc1C(=O)Nc1ccc(C(=O)N2CCN(C(=O)C3CC[N+](C)(C)CC3)CC2)c(Cl)c1` [Example F21, N-[3-chloro-4-[4-(1,1-dimethylpiperidin-1-ium-4-carbonyl)piperazine-1-carbonyl]phenyl]-5-[2,3-difluoro-4-[5-(4-hydroxybutyl)-1H-pyrazol-4-yl]phenyl]-1-methyl-imidazole-2-carboxamide; formate] showed an MIC of 2.31 µM. For `Cc1c(-c2ccc(-c3cnc(C(=O)Nc4ccc(C(=O)N5CCN(C(=O)C6CCNCC6)CC5)c(Cl)c4)n3C)c(F)c2F)cnn1CC(F)F` [Example E1, N-[3-chloro-4-[4-(piperidine-4-carbonyl)piperazine-1-carbonyl]phenyl]-5-[4-[1-(2,2-difluoroethyl)-5-methyl-pyrazol-4-yl]-2,3-difluoro-phenyl]-1-methyl-imidazole-2-carboxamide], the MIC was 0.56 µM (≈ 0.4 µg/mL). Work on `COCCn1ncc(-c2ccc(-c3cnc(C(=O)Nc4ccc(C(=O)N5CCN(C(=O)C6CCNCC6)CC5)c(Cl)c4)n3C)c(Cl)c2F)c1C` [Example E4, 5-[2-chloro-3-fluoro-4-[1-(2-methoxyethyl)-5-methyl-pyrazol-4-yl]phenyl]-N-[3-chloro-4-[4-(piperidine-4-carbonyl)piperazine-1-carbonyl]phenyl]-1-methyl-imidazole-2-carboxamide; formic acid] yielded an MIC of 0.57 µM (≈ 0.414 µg/mL). Work on `COCCn1nc(C)c(-c2ccc(-c3cnc(C(=O)Nc4ccc(C(=O)N5CCN(C(=O)C[N+]6(C)C[C@@H](N)[C@H](OC)C6)CC5)c(Cl)c4)n3C)c(F)c2F)c1C` (mixture of isomers) [Example C13, N-[4-[4-[2-[(3R,4R)-3-amino-4-methoxy-1-methyl-pyrrolidin-1-ium-1-yl]acetyl]piperazine-1-carbonyl]-3-chloro-phenyl]-5-[2,3-difluoro-4-[1-(2-methoxyethyl)-3,5-dimethyl-pyrazol-4-yl]phenyl]-1-methyl-imidazole-2-carboxamide; formic acid; formate] yielded an MIC of 1.22 µM.

Same assay, conditions: Acinetobacter baumannii, ATCC17978, 20 h, read-out: MIC AB. ATCC17978
Work on `COCCn1ncc(-c2ccc(-c3cnc(C(=O)Nc4ccc(C(=O)N5CCN(C(=O)C6CC[N+](C)(CCS(N)(=O)=O)CC6)CC5)c(Cl)c4)n3C)c(F)c2F)c1C` (stereo not shown) [Example B34, N-[3-chloro-4-[4-[1-methyl-1-(2-sulfamoylethyl)piperidin-1-ium-4-carbonyl]piperazine-1-carbonyl]phenyl]-5-[2,3-difluoro-4-[1-(2-methoxyethyl)-5-methyl-pyrazol-4-yl]phenyl]-1-methyl-imidazole-2-carboxamide; formate] yielded an MIC of 0.65 µM.
